Source: patent publication US20170349593A1, “BTK INHIBITORS” (MERCK SHARP & DOHME CORP., priority 2014, published 2017)

Tests used:
[1] = test system: adenosine uptake into HeLa cells; assay: [3H]Adenosine uptake assay; format: cell-based; conditions: Homo sapiens; accumulation of [3H]adenosine into HeLa cells; concentration range 10 μM to 0.032 nM; read-out: ADU inhibition IC50
Outline: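 HeLa cells (25 000/well), plated overnight, were preincubated 30 minutes at ambient temperature with compound in HBSS + 5% FBS. Ten-point titrations ran from 10 μM to 0.032 nM final. [3H]adenosine was added from a 500 nM solution for 60 minutes, and uptake was measured by scintillation proximity counting; IC50 came from a 4-parameter fit.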

[2] = target: T1, BTK enzyme (recombinant full-length BTK, hBTK) (Homo sapiens, UniProt Q06187); assay: Btk enzyme activity assay (LANCE TR-FRET); format: biochemical; conditions: 50 pM hBTK, 25 μM ATP, 60 minute compound and enzyme incubation, concentration range 1 μM to 0.017 nM, read-out: BTK binding IC50
T1 construct: recombinant protein from baculovirus-transfected S 19 cells: full-length BTK, 6 HIS-tag cleaved; 6 HIS-tag (cleaved yes); made in house
T1 sequence (Q06187 whole entry): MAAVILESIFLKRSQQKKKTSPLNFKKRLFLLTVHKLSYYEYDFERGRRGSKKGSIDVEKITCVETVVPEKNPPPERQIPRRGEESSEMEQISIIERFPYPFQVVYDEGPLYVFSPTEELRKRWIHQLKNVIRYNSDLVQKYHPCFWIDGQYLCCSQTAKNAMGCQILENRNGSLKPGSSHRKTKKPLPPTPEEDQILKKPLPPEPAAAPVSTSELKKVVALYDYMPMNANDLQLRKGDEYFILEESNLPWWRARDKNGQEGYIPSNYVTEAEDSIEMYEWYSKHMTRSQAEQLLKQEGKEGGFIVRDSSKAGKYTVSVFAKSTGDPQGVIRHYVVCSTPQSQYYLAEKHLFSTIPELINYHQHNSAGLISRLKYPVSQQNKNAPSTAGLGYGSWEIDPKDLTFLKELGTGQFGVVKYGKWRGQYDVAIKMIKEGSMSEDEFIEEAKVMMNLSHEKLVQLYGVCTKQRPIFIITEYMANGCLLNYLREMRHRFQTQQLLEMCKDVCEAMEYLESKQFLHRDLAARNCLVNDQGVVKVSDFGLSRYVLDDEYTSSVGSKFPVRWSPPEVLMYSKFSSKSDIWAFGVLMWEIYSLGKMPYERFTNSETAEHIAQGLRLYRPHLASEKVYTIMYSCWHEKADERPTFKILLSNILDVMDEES

| Structure (SMILES) | IC50 [1] | IC50 [2] |
| --- | --- | --- |
| COc1cc(C(=O)Nc2cc(C(F)(F)F)ccn2)ccc1-c1nc([C@H]2CN(Cc3[nH]cnc3C)[C@@H](C)CO2)n2ccnc(N)c12 [Example 53, 4-(8-amino-3-{(2R,5S)-5-methyl-4-[(4-methyl-1H-imidazol-5-yl)methyl]morpholin-2-yl}imidazo[1,5-a]pyrazin-1-yl)-3-methoxy-N-[4-(trifluoromethyl)pyridin-2-yl]benzamide] | 1030 nM | 5.8 nM |
| COc1cc(C(=O)Nc2cc(C(F)(F)F)ccn2)ccc1-c1nc([C@H]2CN(Cc3cnn(C)c3)[C@@H](C)CO2)n2ccnc(N)c12 [Example 54, 4-(8-amino-3-{(2R,5S)-5-methyl-4-[(1-methyl-1H-pyrazol-4-yl)methyl]morpholin-2-yl}imidazo[1,5-a]pyrazin-1-yl)-3-methoxy-N-[4-(trifluoromethyl)pyridin-2-yl]benzamide] | 1650 nM | 2.28 nM |
| C[C@H]1CO[C@@H](c2nc(-c3ccc(C(=O)Nc4ccccn4)cc3)c3c(N)nccn23)CN1C1CCOCC1 [Example 57, 4-{8-amino-3-[(2R,5S)-5-methyl-4-(tetrahydro-2H-pyran-4-yl)morpholin-2-yl]imidazo[1,5-a]pyrazin-1-yl}-N-pyridin-2-ylbenzamide] | 1020 nM | 26.7 nM |
| COc1cc(C(=O)Nc2cc(C(F)(F)F)ccn2)ccc1-c1nc([C@H]2CN(C3CCOCC3)[C@@H](C)CO2)n2ccnc(N)c12 [Example 60, 4-{8-amino-3-[(2R,5S)-5-methyl-4-(tetrahydro-2H-pyran-4-yl)morpholin-2-yl]imidazo[1,5-a]pyrazin-1-yl}-3-methoxy-N-[4-(trifluoromethyl)pyridin-2-yl]benzamide] | 1620 nM | 1.57 nM |
| C[C@H]1CO[C@@H](c2nc(-c3ccc(C(=O)Nc4cc(C5CC5)ccn4)cc3F)c3c(N)nccn23)CN1C1CCOCC1 [Example 61, 4-{8-amino-3-[(2R,5S)-5-methyl-4-(tetrahydro-2H-pyran-4-yl)morpholin-2-yl]imidazo[1,5-a]pyrazin-1-yl}-N-(4-cyclopropylpyridin-2-yl)-3-fluorobenzamide] | 386 nM | 0.814 nM |
| C[C@H]1CO[C@@H](c2nc(-c3ccc(C(=O)Nc4ccccn4)cc3)c3c(N)nccn23)CN1C(=O)C1CC1 [Example 62, 4-{8-amino-3-[(2R,5S)-4-(cyclopropylcarbonyl)-5-methylmorpholin-2-yl]imidazo[1,5-a]pyrazin-1-yl}-N-pyridin-2-ylbenzamide] | 256 nM | 10.8 nM |
| C[C@H](O)C(=O)N1C[C@H](c2nc(-c3ccc(C(=O)Nc4cc(C(F)(F)F)ccn4)cc3F)c3c(N)nccn23)OC[C@H]1C [Example 68, 4-(8-amino-3-{(2R,5R)-4-[(2S)-2-hydroxypropanoyl]-5-methylmorpholin-2-yl}imidazo[1,5-a]pyrazin-1-yl)-3-fluoro-N-[4-(trifluoromethyl)pyridin-2-yl]benzamide] | 76.6 nM | 3.02 nM |
| C[C@@H]1CO[C@@H](c2nc(-c3ccc(C(=O)Nc4cc(C(F)(F)F)ccn4)cc3F)c3c(N)nccn23)CN1C(=O)C1(C)CC1 [Example 69, 4-(8-amino-3-{(2R,5R)-5-methyl-4-[(1-methylcyclopropyl)carbonyl]morpholin-2-yl}imidazo[1,5-a]pyrazin-1-yl)-3-fluoro-N-[4-(trifluoromethyl)pyridin-2-yl]benzamide] | 139 nM | 10.9 nM |
| COCC(=O)N1C[C@H](c2nc(-c3ccc(C(=O)Nc4cc(C(F)(F)F)ccn4)cc3F)c3c(N)nccn23)OC[C@H]1C [Example 70, 4-{8-amino-3-[(2R,5R)-4-(methoxyacetyl)-5-methylmorpholin-2-yl]imidazo[1,5-a]pyrazin-1-yl}-3-fluoro-N-[4-(trifluoromethyl)pyridin-2-yl]benzamide] | 135 nM | 13.8 nM |
| CC(=O)N1C[C@H](c2nc(-c3ccc(C(=O)Nc4cc(C(F)(F)F)ccn4)cc3F)c3c(N)nccn23)OC[C@H]1C [Example 71, 4-{3-[(2R,5R)-4-acetyl-5-methylmorpholin-2-yl]-8-aminoimidazo[1,5-a]pyrazin-1-yl}-3-fluoro-N-[4-(trifluoromethyl)pyridin-2-yl]benzamide] | 110 nM | 6.63 nM |
| C[C@@H]1CO[C@@H](c2nc(-c3ccc(C(=O)Nc4cc(C(F)(F)F)ccn4)cc3F)c3c(N)nccn23)CN1Cc1cnn(C)c1 [Example 72, 4-(8-amino-3-{(2R,5R)-5-methyl-4-[(1-methyl-1H-pyrazol-4-yl)methyl]morpholin-2-yl}imidazo[1,5-a]pyrazin-1-yl)-3-fluoro-N-[4-(trifluoromethyl)pyridin-2-yl]benzamide] | 138 nM | 1.45 nM |
| C[C@H]1CO[C@@H](c2nc(-c3ccc(C(=O)Nc4cc(C(F)(F)F)ccn4)cc3F)c3c(N)nccn23)CN1Cc1cnn(C)c1 [Example 74, 4-(8-amino-3-{(2R,5S)-5-methyl-4-[(1-methyl-1H-pyrazol-4-yl)methyl]morpholin-2-yl}imidazo[1,5-a]pyrazin-1-yl)-3-fluoro-N-[4-(trifluoromethyl)pyridin-2-yl]benzamide] | 224 nM | 0.47 nM |
| C[C@H]1CO[C@@H](c2nc(-c3ccc(C(=O)Nc4cc(C(F)(F)F)ccn4)cc3F)c3c(N)nccn23)CN1C(=O)C1(C)COC1 [Example 77, 4-(8-amino-3-{(2R,5S)-5-methyl-4-[(3-methyloxetan-3-yl)carbonyl]morpholin-2-yl}imidazo[1,5-a]pyrazin-1-yl)-3-fluoro-N-[4-(trifluoromethyl)pyridin-2-yl]benzamide] | 239 nM | 0.44 nM |

Next, values leading:

| IC50 [1] | IC50 [2] | Structure (SMILES) |
| --- | --- | --- |
| 2060 nM | 2.54 nM | COc1cc(C(=O)Nc2cc(C(F)(F)F)ccn2)ccc1-c1nc([C@H]2CN(C3COC3)[C@@H](C)CO2)n2ccnc(N)c12 [Example 55, 4-{8-amino-3-[(2R,5S)-5-methyl-4-oxetan-3-ylmorpholin-2-yl]imidazo[1,5-a]pyrazin-1-yl}-3-methoxy-N-[4-(trifluoromethyl)pyridin-2-yl]benzamide] |
| 48.5 nM | 5.28 nM | Nc1nccn2c([C@H]3CN(C(=O)C4CC4)[C@H](CO)CO3)nc(-c3ccc(C(=O)Nc4cc(C(F)(F)F)ccn4)cc3F)c12 [Example 63, 4-{8-amino-3-[(2R,5R)-4-(cyclopropylcarbonyl)-5-(hydroxymethyl)morpholin-2-yl]imidazo[1,5-a]pyrazin-1-yl}-3-fluoro-N-[4-(trifluoromethyl)pyridin-2-yl]benzamide] |
| 260 nM | 4.33 nM | Cn1cc(CN2C[C@H](c3nc(-c4ccc(C(=O)Nc5cc(C(F)(F)F)ccn5)cc4F)c4c(N)nccn34)OC[C@H]2CO)cn1 [Example 64, 4-(8-amino-3-{(2R,5R)-5-(hydroxymethyl)-4-[(1-methyl-1H-pyrazol-4-yl)methyl]morpholin-2-yl}imidazo[1,5-a]pyrazin-1-yl)-3-fluoro-N-[4-(trifluoromethyl)pyridin-2-yl]benzamide] |
| 136 nM | 6.78 nM | Nc1nccn2c([C@H]3CN(C4CCOCC4)[C@H](CO)CO3)nc(-c3ccc(C(=O)Nc4cc(C(F)(F)F)ccn4)cc3F)c12 [Example 65, 4-{8-amino-3-[(2R,5R)-5-(hydroxymethyl)-4-(tetrahydro-2H-pyran-4-yl)morpholin-2-yl]imidazo[1,5-a]pyrazin-1-yl}-3-fluoro-N-[4-(trifluoromethyl)pyridin-2-yl]benzamide] |
| 24.6 nM | 1.23 nM | Nc1nccn2c([C@H]3CN(C4COC4)[C@H](CO)CO3)nc(-c3ccc(C(=O)Nc4cc(C(F)(F)F)ccn4)cc3F)c12 [Example 66, 4-{8-amino-3-[(2R,5R)-5-(hydroxymethyl)-4-oxetan-3-ylmorpholin-2-yl]imidazo[1,5-a]pyrazin-1-yl}-3-fluoro-N-[4-(trifluoromethyl)pyridin-2-yl]benzamide] |
| 129 nM | 1.97 nM | Nc1nccn2c([C@H]3CN[C@H](CO)CO3)nc(-c3ccc(C(=O)Nc4cc(C(F)(F)F)ccn4)cc3F)c12 [Example 67, 4-{8-amino-3-[(2R,5R)-5-(hydroxymethyl)morpholin-2-yl]imidazo[1,5-a]pyrazin-1-yl}-3-fluoro-N-[4-(trifluoromethyl)pyridin-2-yl]benzamide] |
| 122 nM | 2.67 nM | C[C@@H]1CO[C@@H](c2nc(-c3ccc(C(=O)Nc4cc(C(F)(F)F)ccn4)cc3F)c3c(N)nccn23)CN1C1CCOCC1 [Example 73, 4-{8-amino-3-[(2R,5R)-5-methyl-4-(tetrahydro-2H-pyran-4-yl)morpholin-2-yl]imidazo[1,5-a]pyrazin-1-yl}-3-fluoro-N-[4-(trifluoromethyl)pyridin-2-yl]benzamide] |
| 350 nM | 0.329 nM | C[C@H]1CO[C@@H](c2nc(-c3ccc(C(=O)Nc4cc(C(F)(F)F)ccn4)cc3F)c3c(N)nccn23)CN1C1CCOCC1 [Example 75, 4-{8-amino-3-[(2R,5S)-5-methyl-4-(tetrahydro-2H-pyran-4-yl)morpholin-2-yl]imidazo[1,5-a]pyrazin-1-yl}-3-fluoro-N-[4-(trifluoromethyl)pyridin-2-yl]benzamide] |
| 237 nM | 0.531 nM | C[C@H]1CO[C@@H](c2nc(-c3ccc(C(=O)Nc4cc(C(F)(F)F)ccn4)cc3F)c3c(N)nccn23)CN1C1COC1 [Example 76, 4-{8-amino-3-[(2R,5S)-5-methyl-4-oxetan-3-ylmorpholin-2-yl]imidazo[1,5-a]pyrazin-1-yl}-3-fluoro-N-[4-(trifluoromethyl)pyridin-2-yl]benzamide] |
